Measured values as given in ChEMBL document CHEMBL3232955, “Impact of stereospecific intramolecular hydrogen bonding on cell permeability and physicochemical properties” (J Med Chem, 2014).
≈ marks a conversion by molar mass, not a printed value.

What was measured:
[1] = Efflux ratio of apparent permeability from basolateral to apical side to apical to basolateral side of human Caco2 cells; type: ADME, cell-based; conditions: Caco-2
[2] = Solubility of the compound in phosphate buffered saline at pH 7.4 containing 1% DMSO after 18 hrs by UPLC-MS method; type: physicochemical; conditions: phosphate buffered saline with 1% DMSO
[3] = Dissociation constant, pKa of the compound for N34 pyridine group by dip probe absorption spectroscopy; type: physicochemical
[4] = Dissociation constant, pKa of the compound for N15, 3'-amine group by dip probe absorption spectroscopy; type: physicochemical
[5] = Lipophilicity, log D of the compound by shake flask technique; type: physicochemical; conditions: octanol/water

Compound | efflux ratio [1] | solubility kinetic at 18 h [2] | pKa [3] | pKa [4] | logD [5]
C[C@@H](CO)N1C(=O)c2cccc(NC(=O)c3ccncc3)c2O[C@@H](CN(C)Cc2ccc(Oc3ccccc3)cc2)[C@@H]1C | 0.36 | 1 µM (≈ 0.581 µg/mL) | 2.76 | 6.08 | –
C[C@@H]1[C@@H](CN(C)Cc2ccc(Oc3ccccc3)cc2)Oc2c(NC(=O)c3ccncc3)cccc2C(=O)N1[C@@H](C)CO | 0.1 | 1 µM (≈ 0.581 µg/mL) | 2.77 | 6.18 | –
C[C@H](CO)N1C(=O)c2cccc(NC(=O)c3ccncc3)c2O[C@@H](CN(C)Cc2ccc(Oc3ccccc3)cc2)[C@@H]1C | 0.42 | 2 µM (≈ 1.16 µg/mL) | 2.76 | 6.14 | –
C[C@H](CO)N1C(=O)c2cccc(NC(=O)c3ccncc3)c2O[C@H](CN(C)Cc2ccc(Oc3ccccc3)cc2)[C@H]1C | 0.31 | 1 µM (≈ 0.581 µg/mL) | 2.77 | 6.08 | –
C[C@H](CO)N1C(=O)c2cccc(NC(=O)c3ccncc3)c2O[C@@H](CN(C)Cc2ccc(Oc3ccccc3)cc2)[C@H]1C | 0.47 | 86 µM (≈ 49.9 µg/mL) | 2.98 | 7.07 | 3.4
C[C@@H](CO)N1C(=O)c2cccc(NC(=O)c3ccncc3)c2O[C@H](CN(C)Cc2ccc(Oc3ccccc3)cc2)[C@@H]1C | 0.41 | 93 µM (≈ 54 µg/mL) | 2.98 | 7.08 | 3.4
C[C@H](CO)N1C(=O)c2cccc(NC(=O)c3ccncc3)c2O[C@H](CN(C)Cc2ccc(Oc3ccccc3)cc2)[C@@H]1C | 0.36 | 98 µM (≈ 56.9 µg/mL) | 2.98 | 7.16 | 3.4
C[C@@H]1[C@H](CN(C)Cc2ccc(Oc3ccccc3)cc2)Oc2c(NC(=O)c3ccncc3)cccc2C(=O)N1[C@@H](C)CO | 0.48 | 87 µM (≈ 50.5 µg/mL) | 2.97 | 7.16 | 3.4
